These results are taken from patent US7253176B1, “Immunosuppressive effects of 8-substituted xanthine derivatives” (K.U. Leuven Research & Development, priority 2000, dated 2007).

A value given as a limit tells only on which side of the number the result lay.

In data set [1] the test system is Highly purified T cells. The data set is described as follows: T cell proliferation induced by anti-CD28 mAb+PMA (BrdU). In kind it is cell-based, human. The conditions noted are these: anti-CD28 mAb+PMA pathway, read-out: IC50 aCD28. An excerpt:
(§1) Various models may be used for testing an immunosuppressive effect. In vivo, for example, different transplantation models are available. They are strongly influenced by different immunogenicities, depending on the donor and recipient species used and depending on the nature of the transplanted organ. The survival time of transplanted organs can thus be used to measure the suppression of the immune response. In vitro, there exist also various models. The most used are lymphocyte activation tests. Usually activation is measured via lymphocyte proliferation. Inhibition of proliferation thus always means immunosuppression under the experimental conditions applied. There exist different stimuli for lymphocyte activation: • coculture of lymphocytes of […] (MLR=mixed lymphocyte reaction): lymphocytes expressing different minor and major antigens of the HLA-DR type (=allogens) activate each other non-specifically. • CD3 assay: here there is an activation of the T-lymphocytes via an exogenously added antibody (OKT3). This antibody reacts against the CD3 molecule located on the lymphocyte membrane. This molecule has a […]. […] This molecule is also located on the lymphocyte membrane, and delivers strong costimulatory signals. […] Reagents
T cells were purified by removing non-T cells. Briefly, monocytes were removed by cold agglutination. The resulting lymphoid cells were further purified by a cell enrichment immunocolumn [Cellect Human T (Biotex, Edmonton, Alberta, Canada)] by a process of negative selection. More than 95% of the B cells were removed with this procedure. After depletion, the resulting T cell preparation was highly purified explaining these cells could not be activated by PHA or rIL-2 alone at concentrations capable of stimulating RBMC prior to deletion.
(§2) Measurements of T Cell Proliferations Induced by Anti-CD3 mAB+PMA or Anti-CD28 mAb+PMA
(§3) Highly purified T cells (10^6/ml) were stimulated by immobilized anti-CD3 or anti-CD28 mAb in the presence of PMA. Anti-CD3 mAb (CLB-CD3; CLB, Amsterdam, The Netherlands) were fixed on the 96-microwell plates by incubating the wells with 50 μl of mAb solution […] 50 μl (1/650 dilution in culture medium) was added directly to the wells. Further, 20 μl PMA (Sigma, St. Louis, Mo., USA) solution (final concentration: 0.5 ng/ml) was added. Subsequently, 20 μl of immunosuppressants were added by serial dilution in triplicate wells. Finally 100 μl of the T cell suspension (10^6/ml) was added. After 48-hour incubation at 37° C. in 5% CO2 20 μl BrdU (100 μM solution) (Cell Proliferation Elisa, Boehringer-Mannheim Belgium) was added to each well. After a further overnight incubation the T cell proliferation was measured using a calorimetric immunoassay for qualification of cell proliferation based on measurements of the incorporation of BrdU during DNA synthesis. The optical density (OD) was measured by a Behring EL311 place reader at 450 nm (reference wavelength: […]). The percent suppression of proliferation by drugs was counted using the formula: […]

Data set [2] concerns Peripheral blood mononuclear cells (PBMC). The data set is described as follows: Mixed lymphocyte reaction (MLR), [3H]-thymidine incorporation. In kind it is cell-based, human. The conditions noted are these: lowest concentration giving 50% suppression of the MLR.
Source text: as §1
Mixed Lymphocyte Reaction
Peripheral blood mononuclear cells (PBMC) were isolated from heparinized peripheral blood by density gradient centrifugation over Lymphoprep (Nycomed, Maorstua, Norway). Allogeneic PBMC or EBV-transformed human B cells [RPMI1788 (ATCC name CCL156)] which strongly express B7-1 and B7-2 were used as stimulator calls after irradiation with 30 Gy. MLR was performed in triplicate wells. After 5 days incubation at 37° C., 1 μCi [^3H]-thymidine was added to each cup. After a further 16 hours incubation, cells were harvested and counted in a β-counter.
The percent suppression of proliferation by drugs was counted using the formula: […]

Data set [3] concerns Highly purified T cells. Kind of data set: T cell proliferation induced by anti-CD3 mAb+PMA (BrdU). In kind it is cell-based, human. To be noted: anti-CD3 mAb+PMA pathway, read-out: IC50 aCD3.
Source text: T cells were purified by removing non-T cells. Briefly, monocytes were removed by cold agglutination. The resulting lymphoid cells were further purified by a cell enrichment immunocolumn [Cellect Human T (Biotex, Edmonton, Alberta, Canada)] by a process of negative selection.
as §2, §3

Data set [4] concerns Con A induced proliferation of lymphocytes. The data set is described as follows: Whole Blood Assay (WBA): Con A induced lymphoproliferation in blood of rats given test substances in vivo. Also on record: species or system R/A rats. To be noted: orally 40 mg/kg/d 2x/d 2d, blood taken after 8 h, Con A 15 μg/ml. The procedure:
[formula] […] Whole Blood Assay (WBA): WBA is a lymphoproliferation assay performed in vitro but using lymphocytes present in whole blood, taken from animals that were previously given test substances in vivo.
Rats: inbred, male 6- to 8-weeks old R/A rats weighing ±200 g were used as recipients.
Drug administration: xanthine derivatives were dissolved in DMSO and further diluted with PBS. Products were given orally in different concentrations 2 times a day for 2 days. To perform the experiments, 6–8 hours after the last administration 1 ml of blood is taken by heart puncture after ether anesthesia and anticoagulated with 100 U/ml of preservative free heparine. […]
Heparinized whole blood was diluted (1:25) with complete RPMI medium and stimulated with 15 μg/ml of concanavalin A (Con A) in triplicate wells in 96-well microtiter plates at 37° C. and 5% CO2. After 96-h culture, proliferation was determined by measuring the incorporation (cpm) of [^3H]-thymidine.
The Con A induced proliferation of lymphocytes taken from rats receiving the test substances (exp) was compared with that from rats receiving only the solvent (con). The percent suppression was calculated as follows: […]

`Cn1cnc2c1c(=O)n(CCCCC(=O)O)c(=O)n2C` [Compound 22, 1-(4-Carboxybutyl)-3,7-dimethylxanthine] had a melting point of 195 °C. Moreover, in the data set with Highly purified T cells [1] (Homo sapiens, T-cell), the concentration for half-maximal inhibition (IC50) is more than 200 µM. The concentration for half-maximal inhibition (IC50) in data set [2] (Homo sapiens, PBMC) is more than 200 µM. Moreover, the IC50 in the data set on Highly purified T cells [3] (Homo sapiens, T-cell) is more than 200 µM.

Take `CC#Cn1c(=O)c2c(ncn2C)n(C#CC)c1=O` [Compound 4, 1,3-dipropynyl-7-methylxanthine]: the melting point worked out at 172 °C. Also, in the data set with Highly purified T cells [1] (Homo sapiens, T-cell), the IC50 was more than 200 µM. In data set [2] (Homo sapiens, PBMC), this compound registered an IC50 of more than 200 µM. The IC50 in the data set with Highly purified T cells [3] (Homo sapiens, T-cell) was 90 µM.

`CC#Cn1c(=O)c2c(ncn2C#CC)n(C)c1=O` [Compound 2, 1,7-dipropynyl-3-methylxanthine]: the melting point was 177 °C.

`Cn1c(=O)c2c(ncn2C)n(CC(C)(C)C)c1=O` [Compound 68, 1,7-dimethyl-3-((tertbutyl)methyl)xanthine] yielded a melting point of 158 °C. Also, the half-inhibitory concentration (IC50) in the data set with Highly purified T cells [1] (Homo sapiens, T-cell) amounted to 120 µM. Also, the half-maximal inhibitory concentration (IC50) in data set [2] (Homo sapiens, PBMC) was determined as 75 µM. The 50% inhibitory concentration (IC50) with Highly purified T cells [3] (Homo sapiens, T-cell) stood at 130 µM.

`CC#Cn1c(=O)c2c(ncn2C#CC)n(C#CC)c1=O` [Compound 5, 1,3,7-tripropynylxanthine] gave a melting point of 155 °C. For the same compound, the IC50 in the data set on Highly purified T cells [1] (Homo sapiens, T-cell) was more than 200 µM. Moreover, in data set [2] (Homo sapiens, PBMC), the IC50 is more than 200 µM. Moreover, the half-maximal inhibitory concentration (IC50) in the data set with Highly purified T cells [3] (Homo sapiens, T-cell) is 50 µM.

For “1,3-dipropyl-8-[4(diethylamino(propyl(amino-(sulfonyl))))fenyl]xanthine [Compound 11]”, the “% suppresion” value in data set [4] was 33%. For the same compound, the half-maximal inhibitory concentration (IC50) in the data set with Highly purified T cells [1] was determined as 55 µM; in data set [2], 25 µM; in the data set on Highly purified T cells [3] it was 40 µM.

For `Cn1c(=O)c2[nH]cnc2n(CC(C)(C)C)c1=O` [Compound 69], the IC50 with Highly purified T cells [1] was 45 µM; in data set [2] it was 120 µM; in the data set with Highly purified T cells [3], 110 µM.

On to `CCCn1c(=O)c2c(nc(-c3ccc(-c4ccccc4)cc3)n2CCC)n(CCC)c1=O` [Compound 116, 1,3,7-tripropyl-8-(p-bifenyl)xanthine], for which the IC50 turned out to be 40 µM in the data set on Highly purified T cells [1], 160 µM in data set [2] and 45 µM in the data set on Highly purified T cells [3].

Turning to `CCCn1c(=O)c2[nH]c(C3CCCC3)nc2n(CCC)c1=O` [Compound 63], the results for the half-maximal inhibitory concentration (IC50) (in the data set on Highly purified T cells [1]; in data set [2]; in the data set on Highly purified T cells [3]) were 100 µM, more than 200 µM and 135 µM, respectively.

For the compound `CCOC(=O)CCCn1c(=O)c2c(ncn2C)n(C)c1=O` [Compound 24, 1-(3-ethoxycarbonyl)propyl-3,7-dimethylxanthine], the concentration for half-maximal inhibition (IC50) in the data set on Highly purified T cells [1] is 150 µM; in data set [2] it was more than 200 µM; with Highly purified T cells [3], 170 µM.

Regarding `Cn1c(=O)c2c(nc(C3CCCC3)n2C)n(C)c1=S` [Compound 66], the IC50 with Highly purified T cells [1] was 170 µM; in data set [2], more than 200 µM; in the data set on Highly purified T cells [3] it was 170 µM.

Consider `Cn1c(=O)c2[nH]c(C3CCCC3)nc2n(C)c1=O` [Compound 62], for which the figures for the 50% inhibitory concentration (IC50) (in the data set on Highly purified T cells [1]; in data set [2]; in the data set on Highly purified T cells [3]) were 190 µM, more than 200 µM and more than 200 µM, respectively.

Consider `CCCn1c(=O)c2[nH]c(-c3ccco3)nc2n(CCC)c1=O` [Compound 59], for which the IC50 came to 135 µM in the data set on Highly purified T cells [1], 15 µM in data set [2] and 155 µM in the data set with Highly purified T cells [3].

Take `Cn1c(-c2ccc(S(N)(=O)=O)cc2)nc2c1c(=O)[nH]c(=O)n2C` [Compound 37]: the 50% inhibitory concentration (IC50) in the data set on Highly purified T cells [1] is 150 µM; in data set [2], more than 200 µM; in the data set on Highly purified T cells [3], 150 µM.

Take `CCCn1c(=O)c2[nH]c(-c3ccc(OCC(=O)OCC)cc3)nc2n(CCC)c1=S` [Compound 29]: the IC50 is 130 µM in the data set on Highly purified T cells [1], more than 200 µM in data set [2] and 150 µM in the data set with Highly purified T cells [3].

As to “1,3-dimethyl-7-propyl-8-fenylxanthine [Compound 112]”, the figures for the IC50 (in the data set with Highly purified T cells [1]; in data set [2]; with Highly purified T cells [3]) were 40 µM, 20 µM and 45 µM, respectively.

For the compound “1,3-dipropyl-2-thio-8-[4-((((N-2-aminoethyl)-amino)carbonyl)methyl)oxy)fenyl]xanthine [Compound 35]”, the concentration for half-maximal inhibition (IC50) with Highly purified T cells [1] was 70 µM; in data set [2], 50 µM; in the data set on Highly purified T cells [3] it was 50 µM.

Take `Cn1c(=O)c2[nH]c(-c3ccc(S(N)(=O)=O)cc3)nc2n(C)c1=O` [Compound 125]: the IC50 was determined as 90 µM with Highly purified T cells [1], 160 µM in data set [2] and 150 µM with Highly purified T cells [3].
